Assay [1] concerns ejaculatory latency. The settings on record: male rat copulatory behavior study, reported previously; cited from earlier work.
Assay [2] concerns ejaculation-like reflex. Briefly: Ejaculation-like reflex induced by urethral occlusion by a bend at the penile base. The conditions noted are these: anesthetized spinal cord-transected male SD rats; 1.0 mg/kg iv; occlusion 10 minutes after dosing; vs pre values; N=3. It counts as in vivo, rat. The source says:
Male SD rats of 300-450 g body weight (Charles River) were used under urethane anesthesia (1.2 g/kg, s.c., ACROS Organic). The skin and muscle on the back were incised to expose the 7th-9th thoracic vertebra. The vertebra on the back side was removed to expose the spinal cord, which was cut at the 8th-10th thoracic vertebra. Gelfoam (Pfizer) was imbedded in the cut site and the muscle and skin were sutured.
The neck skin and muscle were incised, and catheters (Intramedic polyethylene tube No. 50; Becton Dickinson) were inserted into the carotid and jugular vein for measuring the blood pressure and administering a drug, respectively. The other end of the carotid catheter was connected to a pressure transducer (CDXIII Transducer, Argon Medical Devices).
The lower abdominal region was subjected to median incision to expose the bladder. […] The pressure transducers connecting to the catheter inserted into the carotid […] and the catheter inserted into the proximal urethra were connected to a distortion pressure amplifier (Transbridge 4M, World Precision Instruments) installed in a polygraph system (RPS321RM, GRASS Technologies), and the blood pressure and urethral pressure were measured by a Power Labosystem (ML880 and LabChart version 6, AD Instruments) with a lapse of time. […]

On to `CCCN(CCC)C1CCc2cccc(O)c2C1` (stereo not drawn) [8-OH-DPAT], for which the ejaculatory latency result in assay [1] is reported as “shorten the ejaculatory latency”. In addition, in assay [2], the “latency from the start of occlusion until the first ejaculation-like reflex” value is recorded as “shortened the latency of the first ejaculation-like reflex” and the “threshold urethra pressure immediately before the first ejaculation-like reflex” value is given as “reduced the threshold urethra pressure”.
